According to PMC8143356, “Mechanism of Resistance Development in E. coli against TCAT, a Trimethoprim-Based Photoswitchable Antibiotic” (Pharmaceuticals, 2021):

Molecular target: T1, dihydrofolate reductase (DHFR) (Escherichia coli, UniProt P0ABQ4, C152S/C85A)
T1 construct: gene folA
T1 sequence (P0ABQ4 1-159 C85A/C152S): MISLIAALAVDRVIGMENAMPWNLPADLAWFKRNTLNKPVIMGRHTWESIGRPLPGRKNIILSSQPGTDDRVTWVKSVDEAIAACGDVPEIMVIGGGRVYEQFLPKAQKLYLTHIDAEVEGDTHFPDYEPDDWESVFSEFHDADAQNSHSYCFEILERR
Test: spectrophotometric DHFR activity assay ([…] nm) with in-house purified E. coli DHFR, triplicates
Format: biochemical

COc1cc(Cc2cnc(N)nc2N)cc(OC)c1OCc1cc(Cl)c(/N=N\c2c(Cl)cccc2Cl)c(Cl)c1 [TCATa]
IC50: 3.3 ± 2.1 nM

COc1cc(Cc2cnc(N)nc2N)cc(OC)c1OCc1cc(Cl)c(/N=N/c2c(Cl)cccc2Cl)c(Cl)c1 [TCATd]
IC50: 3.8 ± 1.4 nM
